For this assay, the target named is T1, ERCC1-XPF (Homo sapiens, UniProt P07992+Q92889).
T1 construct: made in house; host or cells: Sf9 insect cells, baculovirus (obtained from Aziz Sancar)
T1 sequence (Q92889 1-916): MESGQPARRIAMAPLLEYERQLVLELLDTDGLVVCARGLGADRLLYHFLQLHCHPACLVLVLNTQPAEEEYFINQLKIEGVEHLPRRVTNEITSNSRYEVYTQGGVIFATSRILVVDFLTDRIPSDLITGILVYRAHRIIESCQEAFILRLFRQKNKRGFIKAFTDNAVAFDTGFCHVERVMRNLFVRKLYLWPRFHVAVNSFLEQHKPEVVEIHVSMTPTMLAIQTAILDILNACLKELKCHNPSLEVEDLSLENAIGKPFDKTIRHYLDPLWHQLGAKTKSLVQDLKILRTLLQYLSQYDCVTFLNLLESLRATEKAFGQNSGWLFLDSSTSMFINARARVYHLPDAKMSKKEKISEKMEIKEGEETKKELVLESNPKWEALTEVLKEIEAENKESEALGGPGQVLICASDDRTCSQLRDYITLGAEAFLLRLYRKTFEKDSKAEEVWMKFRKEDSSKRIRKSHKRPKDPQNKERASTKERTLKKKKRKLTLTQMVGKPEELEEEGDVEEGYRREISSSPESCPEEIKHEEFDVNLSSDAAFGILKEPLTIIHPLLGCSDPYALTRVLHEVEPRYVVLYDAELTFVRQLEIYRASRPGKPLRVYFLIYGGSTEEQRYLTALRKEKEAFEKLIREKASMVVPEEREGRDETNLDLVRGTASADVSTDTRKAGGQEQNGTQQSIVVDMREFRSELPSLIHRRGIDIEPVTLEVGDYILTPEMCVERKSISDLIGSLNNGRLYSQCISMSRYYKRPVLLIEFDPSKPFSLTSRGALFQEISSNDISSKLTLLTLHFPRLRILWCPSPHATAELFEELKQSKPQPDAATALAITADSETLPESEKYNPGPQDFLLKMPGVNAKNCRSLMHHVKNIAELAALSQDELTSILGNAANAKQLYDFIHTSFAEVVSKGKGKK
T1 sequence (P07992 1-297): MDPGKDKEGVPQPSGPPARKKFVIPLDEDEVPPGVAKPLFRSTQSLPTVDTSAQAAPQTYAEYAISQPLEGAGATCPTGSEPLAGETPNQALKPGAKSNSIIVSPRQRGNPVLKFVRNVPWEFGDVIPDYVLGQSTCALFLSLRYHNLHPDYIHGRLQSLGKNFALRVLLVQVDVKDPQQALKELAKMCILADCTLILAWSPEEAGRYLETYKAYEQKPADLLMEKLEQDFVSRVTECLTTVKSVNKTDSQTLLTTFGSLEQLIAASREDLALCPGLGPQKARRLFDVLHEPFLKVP
In words: Rapid dilution experiment for reversible or irreversible binding. It is filed as biochemical. The settings on record: for recovery of enzymatic activity after rapid dilution: 100-fold enzyme preincubated 30 min with 10 times IC90, diluted 100-fold; for reversibility of binding to ERCC1-XPF: rapid dilution method. The procedure: Next, to determine reversible or irreversible binding, we used a rapid dilution method. Here, the amount of enzyme (ERCC1-XPF) is increased 100-fold above what is normally used in a reaction and is pre-incubated for 30 minutes with a concentration of the SMI 10-times greater than the IC90 concentration or with vehicle control. After incubation, the enzyme/inhibitor mixture is diluted 100-fold (i.e., to normal reaction conditions) in the reaction buffer with the DNA substrate at normal reaction conditions. A reversible inhibitor dissociates quickly, allowing immediate recovery of enzymatic activity, whereas a slowly reversible inhibitor allows a gradual increase in activity. In contrast, an irreversible inhibitor prevents recovery of any enzymatic activity. […]
Analysis of DNA binding treatment) was used as 100% intrastrand adducts in each […]
Rapid dilution experiments as described previously […]
of the identified compounds – Hit 1 (NSC143099) and Hit comet assay
2 (NSC16168) to ERCC1-XPF. Briefly, in a 10 μl reaction, ERCC1-XPF concentration was increased 100-fold from Repair of interstrand crosslinks (ICLs) normal reaction conditions of 7.5 nM and mixed with 10 was assessed by alkaline comet assay with some times the IC90 concentration of the compound or vehicle modifications. Cells were treated with compound (Hit control (9:1 DMSO-glycerol). After incubation at 37°C 1 or Hit 2) and cisplatin or just cisplatin alone in serum for 30 minutes, 2 μL of the pre-incubate was diluted into a free media. For treatment with compound and cisplatin, 198 μL solution containing the DNA substrate and reaction cells were treated with compound at 15 µM for 2 hours buffer described in the methods section for HTS assay in a 96 and then cisplatin was added (at IC90 concentration for well plate. The 96-well plate was read in a Spectramax M5 the cell line used) to the media and these were incubated repeatedly for 60 minutes. The data was plotted as increase for another 2 hours. […]
Cisplatin intrastrand adduct measurement by of hydrogen peroxide for 15 minutes to induce random ELISA DNA strand breaks. Cells were then trypsinized, pelleted and resuspended in 1% low melting point agarose. Cell […]
ELISA as described with some modifications. […] Equal amounts of DNA were coated on 96 kept in neutralizing solution (0.4 M Tris–HCl, pH 7.5) well DNA binding ELISA plates in binding buffer (1M for 10 minutes. Slides were then stained with SYBR sodium chloride, 50 mM sodium phosphate buffer, pH green (Trevigen) and comets were analyzed using a 7.4, 0.02% sodium azide) and incubated at 4°C overnight. […]
The wells were blocked with 1% BSA in PBS for 1 hour Fifty cells were analyzed per slide using Komet Assay at room temperature. […]

The structures appear in SMILES notation.

Take `Cc1ccc(S(=O)(=O)Oc2cc(S(=O)(=O)O)cc3cc(S(=O)(=O)O)cc(N)c23)cc1` [NSC16168]: the “recovery of enzymatic activity after rapid dilution” value was “recovers slowly” and the “reversibility of binding to ERCC1-XPF” value was “moderately reversible inhibitor”.
In the case of `Oc1cc(O)c2c(c1)OC(c1ccc(O)c(O)c1)C(O)C2c1c(O)cc(O)c2c1OC(c1ccc(O)c(O)c1)C(O)C2` (stereo not shown) [NSC143099], the “recovery of enzymatic activity after rapid dilution” value was “virtually no recovery of the enzymatic activity” and the “reversibility of binding to ERCC1-XPF” value is given as “binds irreversibly”.
